According to patent US8222267B2 (priority 2009, dated 2012):

Key:
[1] = Open-label pilot study, adverse events / safety of MOXDUO, PERCOCET and preceding IV PCA morphine
[2] = Pharmacokinetics after single oral co-administered dose of morphine and oxycodone (about 3:2) in healthy subjects; details: for AUC0-∞ (dose adjusted) / Cmax: healthy subjects, n = 18
Procedure: Values for the observed maximum plasma concentration (Cmax), total area under the plasma concentration-time curve (AUC0-∞) and the time to maximum plasma concentration (Tmax) were determined.

SMILES | Overall incidence of nausea, pruritus, constipation, and dizziness ([1]; during IV PCA morphine use vs same time period after first dose of study medication) | Subjects with moderate or severe nausea ([1]; while on IV PCA morphine, before study medication) [%] | AUC0-∞ (dose adjusted) ([2]; single oral co-administered dose morphine/oxycodone 3 mg/2 mg) [ng·h/mL/mg] | AUC0-∞ (dose adjusted) ([2]; single oral co-administered dose morphine/oxycodone 12 mg/8 mg) [ng·h/mL/mg] | Tmax ([2]; human, plasma, po) [h] | Cmax ([2]; human, plasma, po, single oral co-administered dose morphine/oxycodone 3 mg/2 mg) [ng/mL] | Cmax ([2]; human, plasma, po, single oral co-administered dose morphine/oxycodone 12 mg/8 mg) [ng/mL] | Dose proportionality of plasma levels ([2]; single-dose combination, 3 mg/2 mg to 12 mg/8 mg dose range, dose-normalized Cmax and AUC0-∞ within 80-125% limits)
CN1CC[C@]23c4c5ccc(O)c4O[C@H]2[C@@H](O)C=C[C@H]3[C@H]1C5 [Morphine, morphine] | higher | 25 |  |  |  |  |  | 
COc1ccc2c3c1O[C@H]1C(=O)CC[C@@]4(O)[C@@H](C2)N(C)CC[C@]314 [Oxycodone, oxycodone] |  |  | 9.62 | 9.62 | 1 | 4.9 | 17.8 | increase linearly in a dose-proportionate manner
